We go through 4 compounds from patent US6242437A, “Cephem derivatives” (Meiji Seika Kaisha, Ltd., priority 1996, dated 2001).

In brackets after ≈: the same amount, converted by molar mass. Counter-ions that a name gives are not always drawn. Bounds are passed on as bounds.

Holding throughout (assay): Minimum inhibitory concentration, two-fold dilution method
Holding throughout (assay type): cell-based

In one assay the test system is S. marcescens No. 1. The conditions noted are these: Serratia marcescens, 10^6 CFU/ml, 35° C., 18 to 20 hr. As for the experimental part: (§1) The antibacterial activity of the compounds according to the present invention was assayed in terms of the minimum inhibitory concentration, for various bacteria, measured by the conventional two-fold dilution method described in, for example, CHEMOTHERAPY, Vol. 29, No. 1, 76-79 (1981). The measurement was carried out in the following manner: 10^6 CFU/ml of a bacterium to be tested was inoculated on a Medium N for disc susceptibility test (manufactured by Nissui Pharmaceutical Co., Ltd.) and cultivated at 35° C. for 18 to 20 hr.
(§2) The test compounds were the compounds prepared in Examples 4 and 5, Cefozopran (CZOP, control 1), Cefpirome (CPR, control 2), the compound prepared in Example 66 (control 3) described in WO 95/07912.

The subject of the next assay is S. pneumoniae IP692. The conditions noted are these: Streptococcus pneumoniae, 10^6 CFU/ml, 35° C., 18 to 20 hr. As for the experimental part: as §1, §2
For another assay, the system named is E. coli NIHJ JC-2. Particulars: Escherichia coli, NIHJJC2, 10^6 CFU/ml, 35° C., 18 to 20 hr. As for the experimental part:
as §1, §2

For another assay, the system named is M. morganii 1510/S-1. Particulars: Morganella morganii, 1510/S1, 10^6 CFU/ml, 35° C., 18 to 20 hr. As for the experimental part:
as §1, §2

Another assay concerns C. freundii GN346/16. Particulars: Citrobacter freundii, 10^6 CFU/ml, 35° C., 18 to 20 hr. As for the experimental part:
as §1, §2

The subject of a further assay is S. epidermidis ATCC14990. Particulars: Staphylococcus epidermidis, 10^6 CFU/ml, 35° C., 18 to 20 hr. As for the experimental part: as §1, §2
A further assay has as its system P. aeruginosa E-2. Particulars: Pseudomonas aeruginosa, E2, 10^6 CFU/ml, 35° C., 18 to 20 hr. As for the experimental part: as §1, §2
Another assay has as its system S. aureus 209P JC-1. Particulars: Staphylococcus aureus, 10^6 CFU/ml, 35° C., 18 to 20 hr. As for the experimental part: as §1, §2
The test system of another assay is P. aeruginosa GN10362. Particulars: Pseudomonas aeruginosa, 10^6 CFU/ml, 35° C., 18 to 20 hr. As to the method:
as §1, §2

A further assay has as its system S. aureus 126. Particulars: Staphylococcus aureus; S. aureus 126, methicilline-resistant (MRSA); 10^6 CFU/ml, 35° C., 18 to 20 hr. As to the method:
as §1, §2

The test system of a further assay is S. pneumoniae PRC9. The conditions noted are these: Streptococcus pneumoniae; S. pneumoniae PRC9, penicillin-resistant (PRSP); 10^6 CFU/ml, 35° C., 18 to 20 hr. As for the experimental part: as §1, §2
Another assay deals with K. pneumoniae PCI602. Particulars: Klebsiella pneumoniae, 10^6 CFU/ml, 35° C., 18 to 20 hr. As for the experimental part: as §1, §2
The subject of another assay is E. cloacae G-0008. Particulars: Enterobacter cloacae, G0008, 10^6 CFU/ml, 35° C., 18 to 20 hr. As to the method: as §1, §2
In the next assay the test system is P. aeruginosa PA01. The conditions noted are these: Pseudomonas aeruginosa; P. aeruginosa PA01, Imipenem- and Aztreonam-resistant; 10^6 CFU/ml, 35° C., 18 to 20 hr. As for the experimental part:
as §1, §2

In a further assay the test system is S. pneumoniae JPR9. The conditions noted are these: Streptococcus pneumoniae; S. pneumoniae JPR9, penicillin-resistant (PRSP); 10^6 CFU/ml, 35° C., 18 to 20 hr. As for the experimental part: as §1, §2
In another assay the test system is S. pneumoniae JPR20. The conditions noted are these: Streptococcus pneumoniae; S. pneumoniae JPR20, penicillin-resistant (PRSP); 10^6 CFU/ml, 35° C., 18 to 20 hr. As to the method:
as §1, §2

Broadly, the MIC is the smallest concentration in the dilution series that meets the test's criterion for growth inhibition. Higher therefore signals a need for much substance. On to `CO/N=C(\C(=O)N[C@@H]1C(=O)N2C(C(=O)[O-])=C(C[n+]3cccc4c3CCC4)CS[C@H]12)c1csc(N)n1` [Control 2, Cefpirome, reference compound], for which the MIC was no more than 0.025 µg/mL in the assay on S. marcescens No. 1; no more than 0.025 µg/mL with S. pneumoniae IP692; 0.05 µg/mL (≈ 0.0972 µM) against E. coli NIHJ JC-2; no more than 0.025 µg/mL with M. morganii 1510/S-1; 0.05 µg/mL (≈ 0.0972 µM) against C. freundii GN346/16; 0.39 µg/mL (≈ 0.758 µM) in the assay on S. epidermidis ATCC14990. The MIC against P. aeruginosa E-2 is 3.13 µg/mL (≈ 6.08 µM); against S. aureus 209P JC-1, 0.2 µg/mL (≈ 0.389 µM); against P. aeruginosa GN10362 it was 3.13 µg/mL (≈ 6.08 µM); in the assay on S. aureus 126, 50 µg/mL (≈ 97.2 µM); against S. pneumoniae PRC9, 0.78 µg/mL (≈ 1.52 µM); against K. pneumoniae PCI602 it was 0.05 µg/mL (≈ 0.0972 µM). Further, the MIC against E. cloacae G-0008 is 0.05 µg/mL (≈ 0.0972 µM); against P. aeruginosa PA01, 25 µg/mL (≈ 48.6 µM).
`Nc1nc(/C(=N/OCF)C(=O)N[C@@H]2C(=O)N3C(C(=O)[O-])=C(C[n+]4cc5sccn5c4CNS(N)(=O)=O)CS[C@H]23)ns1` [Ex. 4, (6R,7R)-7-[(Z)-2-(5-amino-1,2,4-thiadiazol-3-yl)-2-(fluoromethoxyimino)acetamido]-3-[5-sulfamidomethylimidazo[5,1-b]thiazolium-6-yl]methyl-3-cephem-4-carboxylate (inner salt)]: the MIC was 0.2 µg/mL against S. pneumoniae JPR9; 0.05 µg/mL in the assay with S. pneumoniae JPR20; 0.05 µg/mL in the assay with S. marcescens No. 1; no more than 0.025 µg/mL against S. pneumoniae IP692; no more than 0.025 µg/mL against E. coli NIHJ JC-2; no more than 0.025 µg/mL in the assay with M. morganii 1510/S-1. In addition, the MIC is no more than 0.025 µg/mL with C. freundii GN346/16; 0.78 µg/mL against S. epidermidis ATCC14990; 0.78 µg/mL with P. aeruginosa E-2; 0.78 µg/mL in the assay with S. aureus 209P JC-1; 0.39 µg/mL against P. aeruginosa GN10362; 6.25 µg/mL in the assay with S. aureus 126. Besides, the MIC is 0.39 µg/mL in the assay with S. pneumoniae PRC9, no more than 0.025 µg/mL in the assay with K. pneumoniae PCI602, 0.05 µg/mL with E. cloacae G-0008 and 3.13 µg/mL against P. aeruginosa PA01.
As for `CO/N=C(\C(=O)N[C@@H]1C(=O)N2C(C(=O)[O-])=C(C[n+]3ccn4ncccc43)CS[C@H]12)c1nsc(N)n1` [Control 1, Cefozopran, reference compound], the MIC came out at 0.1 µg/mL (≈ 0.194 µM) against S. marcescens No. 1; 0.05 µg/mL (≈ 0.097 µM) in the assay on S. pneumoniae IP692; 0.05 µg/mL (≈ 0.097 µM) with E. coli NIHJ JC-2; 0.1 µg/mL (≈ 0.194 µM) against M. morganii 1510/S-1; 0.05 µg/mL (≈ 0.097 µM) against C. freundii GN346/16; 0.78 µg/mL (≈ 1.51 µM) against S. epidermidis ATCC14990. Further, the MIC in the assay with P. aeruginosa E-2 stood at 0.78 µg/mL (≈ 1.51 µM); in the assay with S. aureus 209P JC-1, 0.39 µg/mL (≈ 0.756 µM); in the assay on P. aeruginosa GN10362, 0.78 µg/mL (≈ 1.51 µM); in the assay with S. aureus 126, 50 µg/mL (≈ 97 µM); in the assay with S. pneumoniae PRC9 it was 1.56 µg/mL (≈ 3.03 µM); with K. pneumoniae PCI602 it was 0.1 µg/mL (≈ 0.194 µM). The figures for the MIC in the assay with E. cloacae G-0008 and against P. aeruginosa PA01 were 0.1 µg/mL (≈ 0.194 µM) and 12.5 µg/mL (≈ 24.2 µM), respectively.
Take `CO/N=C(\C(=O)N[C@@H]1C(=O)N2C(C(=O)[O-])=C(C[n+]3cc4sccn4c3CNS(N)(=O)=O)CS[C@H]12)c1nsc(N)n1` [Ex. 5, (6R,7R)-7-[(Z)-2-(5-Amino-1,2,4-thiadiazol-3-yl)-2-(methoxyimino)acetamido]-3-[5-sulfamidomethylimidazo[5,1-b]thiazolium-6-yl]methyl-3-cephem-4-carboxylate (inner salt)]: the MIC against S. marcescens No. 1 is 0.1 µg/mL; in the assay with S. pneumoniae IP692, no more than 0.025 µg/mL; with E. coli NIHJ JC-2, 0.05 µg/mL; with M. morganii 1510/S-1 it was 0.05 µg/mL; against C. freundii GN346/16 it was 0.05 µg/mL; against S. epidermidis ATCC14990 it was 0.78 µg/mL. Also, the MIC in the assay with P. aeruginosa E-2 was 0.78 µg/mL; in the assay with S. aureus 209P JC-1, 0.78 µg/mL; against P. aeruginosa GN10362, 0.78 µg/mL; against S. aureus 126, 6.25 µg/mL; with S. pneumoniae PRC9, 0.39 µg/mL; against K. pneumoniae PCI602 it was 0.05 µg/mL. The MIC in the assay with E. cloacae G-0008 stood at 0.1 µg/mL; against P. aeruginosa PA01 it was 3.13 µg/mL.
